According to publication PMC7918049, “Juncaceae Species as Promising Sources of Phenanthrenes: Antiproliferative Compounds from Juncus maritimus Lam” (Molecules, 2021):

Test system: KCR, drug-resistant subline of the human breast cancer MCF-7
Test: MTT antiproliferative assay, KCR
Assay type: cell-based
Settings: Homo sapiens, MCF7, 72 h, mean of four parallel experiments, read-out: IC50 (µM) ± SD KCR
Experimental: (§1) Breast cancer cell line MCF-7 (ATCC®® HTB-22) and the drug-resistant subline of the human breast cancer MCF-7 (ECACC 86012803; KCR) were purchased from LGC Promochem (Teddington, UK). Both cell lines were cultured in Eagle’s Minimal Essential Medium (EMEM, containing 4.5 g/L glucose) supplemented with a non-essential amino acid mixture, a selection of vitamins, and 10% heat-inactivated fetal bovine serum. In every third passage, 0.56 µg/mL doxorubicin was added to the medium in order to maintain the ABCB1 (P-glycoprotein) expression in KCR cells. A2780 human ovarian cancer cell line (ECACC European Collection of Authentical Cell Culture, Sigma Cat. no. 93112519) and the cisplatin-resistant human ovarian cancer cell line A2780cis (ECACC European Collection of Authentical Cell Culture, Sigma Cat. no. 93112517) were purchased from Merck KGaA (Darmstadt, Germany). The human ovarian cancer cell lines were cultured in RPMI 1640 medium supplemented with 10% heat-inactivated fetal bovine serum. The RPMI 1640 medium of the cisplatin-resistant cell line A2780 was supplemented with 1 µM cisplatin. HeLa (ATCC® CCL-2™) human cervix carcinoma, HTB-26 breast adenocarcinoma, T-47D (ATCC® HTB-133™) ductal carcinoma, and MRC-5 human embryonal lung fibroblast cell lines (ATCC® CCL-171) were purchased from LGC Promochem (Teddington, UK). The cells were cultured in Eagle’s Minimal Essential Medium (EMEM, containing 4.5 g/L glucose) supplemented with a non-essential amino acid mixture, a selection of vitamins, and 10% heat-inactivated fetal bovine serum. HTB-26 cell line was cultured in RPMI 1640 medium supplemented with 10% heat-inactivated fetal bovine serum. T-47D cells were cultured in RPMI 1640 medium supplemented with 10% heat-inactivated fetal bovine serum, 2 mM L-glutamine, 1 mM Na-pyruvate, and 100 mM Hepes. All of the cells were incubated at 37 °C, in a 5% CO2, 95% air atmosphere.
(§2) The antiproliferative effect of the compounds was determined on the human breast (MCF-7, KCR, T-47D, HTB-26), cervical (HeLa), and ovarian (A2780, A2780cis) cancer cells, and on MRC-5 (human embryonic lung fibroblast) cell line. The adherent cells were cultured in 96-well flat-bottomed microtiter plates, using EMEM supplemented with 10% heat-inactivated fetal bovine serum or RPMI 1640 supplemented with 10% heat-inactivated fetal bovine serum, respectively. The density of the cells was adjusted to 6 × 10^3 cells in 100 μL per well, the cells were seeded for 24 h at 37 °C, 5% CO2, then the medium was removed from the plates and fresh medium (100 μL per well) was added to the cells. The effects of increasing concentrations of compounds on cell proliferation were tested in 96-well flat-bottomed microtiter plates. The compounds were diluted in the appropriate medium, the dilutions of compounds were performed in separate plates and then added to the cells. The starting concentration of the compounds was 100 μM, and two-fold serial dilution was performed (concentration range: 100-0.19 μM). The culture plates were incubated at 37 °C for 72 h; at the end of the incubation period, 20 μL of MTT (thiazolyl blue tetrazolium bromide, Sigma) solution (from a stock solution of 5 mg/mL) was added to each well. After incubation at 37 °C for 4 h, 100 μL of sodium dodecyl sulfate (SDS) (Sigma) solution (10% in 0.01 M HCI) were added to each well and the plates were further incubated at 37 °C overnight. Cell growth was determined by measuring the optical density (OD) at 540/630 nm with Multiscan EX ELISA reader (Thermo Labsystems, Cheshire, WA, USA). Mean IC50 values were obtained by best fitting the dose-dependent inhibition curves in GraphPadPrism5 program (GraphPad Software version 5.00 for Windows, San Diego, CA, USA) from four parallel experiments for each cell line. Results are expressed in terms of IC50, defined as the inhibitory dose that reduces the proliferation of the cells exposed to the tested compounds by 50% [14].

IC50 [µM] | SMILES
16.2 ± 0.6 | C=Cc1cc(O)cc2c1-c1ccc(Oc3cc4c(c(C)c3O)CCc3cc(O)cc(C=C)c3-4)c(C)c1CC2 [Compound 4, maritin D]
> 100 | C=Cc1cc(O)c(C)c2c1-c1ccc(O)c(C)c1CC2 [Compound 8, 2,7-dihydroxy-1,8-dimethyl-5-vinyl-9,10-dihydrophenanthrene]
> 100 | C=Cc1c(C)ccc2c1CCc1c-2ccc(O)c1C [Compound 2, maritin B]

Test system: cisplatin-resistant human ovarian cancer cell line A2780cis
Test: MTT antiproliferative assay, A2780cis
Assay type: cell-based
Settings: 72 h, mean of four parallel experiments, read-out: IC50 (µM) ± SD A2780cis
Experimental: as §1, §2

IC50 [µM] | SMILES
13.3 ± 0.1 | C=Cc1cc(O)cc2c1-c1ccc(Oc3cc4c(c(C)c3O)CCc3cc(O)cc(C=C)c3-4)c(C)c1CC2 [Compound 4, maritin D]

Same assay, conditions: Homo sapiens, 72 h, mean of four parallel experiments, read-out: IC50 (µM) ± SD A2780cis

IC50 [µM] | SMILES
< 20 | C=Cc1cc(O)cc2c1-c1ccc(Oc3cc4c(c(C)c3O)CCc3cc(O)cc(C=C)c3-4)c(C)c1CC2 [Compound 4, maritin D]
> 100 | C=Cc1cc(O)c(C)c2c1-c1ccc(O)c(C)c1CC2 [Compound 8, 2,7-dihydroxy-1,8-dimethyl-5-vinyl-9,10-dihydrophenanthrene]
> 100 | C=Cc1c(C)ccc2c1CCc1c-2ccc(O)c1C [Compound 2, maritin B]

Test system: MRC-5 human embryonal lung fibroblast cell line
Test: MTT antiproliferative assay, MRC-5 normal cells
Assay type: cell-based
Settings: Homo sapiens, MRC5, 72 h, MRC-5 normal fibroblasts, mean of four parallel experiments, read-out: IC50 (µM) ± SD MRC-5
Experimental: as §1, §2

SMILES | IC50 [µM]
C=Cc1cc(O)cc2c1-c1ccc(Oc3cc4c(c(C)c3O)CCc3cc(O)cc(C=C)c3-4)c(C)c1CC2 [Compound 4, maritin D] | 17.1 ± 3.1
C=Cc1cc(O)c(C)c2c1-c1ccc(O)c(C)c1CC2 [Compound 8, 2,7-dihydroxy-1,8-dimethyl-5-vinyl-9,10-dihydrophenanthrene] | > 100
C=Cc1c(C)ccc2c1CCc1c-2ccc(O)c1C [Compound 2, maritin B] | > 100

Test system: A2780 human ovarian cancer cell line
Test: MTT antiproliferative assay, A2780
Assay type: cell-based
Settings: Homo sapiens, 72 h, A2780, mean of four parallel experiments, read-out: IC50 (µM) ± SD A2780
Experimental: as §1, §2

IC50 [µM] | SMILES
14.1 ± 1.3 | C=Cc1cc(O)cc2c1-c1ccc(Oc3cc4c(c(C)c3O)CCc3cc(O)cc(C=C)c3-4)c(C)c1CC2 [Compound 4, maritin D]
> 100 | C=Cc1cc(O)c(C)c2c1-c1ccc(O)c(C)c1CC2 [Compound 8, 2,7-dihydroxy-1,8-dimethyl-5-vinyl-9,10-dihydrophenanthrene]
> 100 | C=Cc1c(C)ccc2c1CCc1c-2ccc(O)c1C [Compound 2, maritin B]

Test system: HTB-26 breast adenocarcinoma cells
Test: MTT antiproliferative assay, HTB-26
Assay type: cell-based, human
Settings: Homo sapiens, HTB26, 72 h, HTB-26, mean of four parallel experiments, read-out: IC50 (µM) ± SD HTB-26
Experimental: as §1, §2

IC50 [µM] | SMILES
25.1 ± 0.3 | C=Cc1cc(O)cc2c1-c1ccc(Oc3cc4c(c(C)c3O)CCc3cc(O)cc(C=C)c3-4)c(C)c1CC2 [Compound 4, maritin D]
> 100 | C=Cc1cc(O)c(C)c2c1-c1ccc(O)c(C)c1CC2 [Compound 8, 2,7-dihydroxy-1,8-dimethyl-5-vinyl-9,10-dihydrophenanthrene]
> 100 | C=Cc1c(C)ccc2c1CCc1c-2ccc(O)c1C [Compound 2, maritin B]

Test system: HeLa, HTB-26, T-47D, A2780, A2780cis, MCF-7, KCR and MRC-5 cell lines
Test: MTT antiproliferative assay, all cell lines investigated (overall statements)
Assay type: cell-based, human
Settings: 72 h, all cell lines tested
Experimental: Breast cancer cell line MCF-7 (ATCC®® HTB-22) and the drug-resistant subline of the human breast cancer MCF-7 (ECACC 86012803; KCR) were purchased from LGC Promochem (Teddington, UK). Both cell lines were cultured in Eagle’s Minimal Essential Medium (EMEM, containing 4.5 g/L glucose) supplemented with a non-essential amino acid mixture, a selection of vitamins, and 10% heat-inactivated fetal bovine serum. In every third passage, 0.56 µg/mL doxorubicin was added to the medium in order to maintain the ABCB1 (P-glycoprotein) expression in KCR cells. A2780 human ovarian cancer cell line (ECACC European Collection of Authentical Cell Culture, Sigma Cat. no. 93112519) and the cisplatin-resistant human ovarian cancer cell line A2780cis (ECACC European Collection of Authentical Cell Culture, Sigma Cat. no. 93112517) were purchased from Merck KGaA (Darmstadt, Germany). The human ovarian cancer cell lines were cultured in RPMI 1640 medium supplemented with 10% heat-inactivated fetal bovine serum. […]
The antiproliferative effect of the compounds was determined on the human breast (MCF-7, KCR, T-47D, HTB-26), cervical (HeLa), and ovarian (A2780, A2780cis) cancer cells, and on MRC-5 (human embryonic lung fibroblast) cell line. […] Cell growth was determined by measuring the optical density (OD) at 540/630 nm with Multiscan EX ELISA reader (Thermo Labsystems, Cheshire, WA, USA). […]

SMILES | antiproliferative activity across the cell lines investigated (in words)
C=Cc1cc(O)cc2c1-c1ccc(Oc3cc4c(c(C)c3O)CCc3cc(O)cc(C=C)c3-4)c(C)c1CC2 [Compound 4, maritin D] | substantial antiproliferative activity against all cell lines investigated

Test system: HeLa human cervix carcinoma cells
Test: MTT antiproliferative assay, HeLa
Assay type: cell-based
Settings: Homo sapiens, 72 h, mean of four parallel experiments, read-out: IC50 (µM) ± SD HeLa
Experimental: as §1, §2

IC50 [µM] | SMILES
22.5 ± 1.2 | C=Cc1cc(O)cc2c1-c1ccc(Oc3cc4c(c(C)c3O)CCc3cc(O)cc(C=C)c3-4)c(C)c1CC2 [Compound 4, maritin D]
> 100 | C=Cc1cc(O)c(C)c2c1-c1ccc(O)c(C)c1CC2 [Compound 8, 2,7-dihydroxy-1,8-dimethyl-5-vinyl-9,10-dihydrophenanthrene]
11 ± 0.9 | C=Cc1c(C)ccc2c1CCc1c-2ccc(O)c1C [Compound 2, maritin B]

Test system: Breast cancer cell line MCF-7
Test: MTT antiproliferative assay, MCF-7
Assay type: cell-based, human
Settings: 72 h, MCF-7, mean of four parallel experiments, read-out: IC50 (µM) ± SD MCF-7
Experimental: as §1, §2

IC50 [µM] | SMILES
14.2 ± 0.3 | C=Cc1cc(O)cc2c1-c1ccc(Oc3cc4c(c(C)c3O)CCc3cc(O)cc(C=C)c3-4)c(C)c1CC2 [Compound 4, maritin D]

Same assay, conditions: Homo sapiens, MCF7, 72 h, MCF-7, mean of four parallel experiments, read-out: IC50 (µM) ± SD MCF-7

IC50 [µM] | SMILES
< 20 | C=Cc1cc(O)cc2c1-c1ccc(Oc3cc4c(c(C)c3O)CCc3cc(O)cc(C=C)c3-4)c(C)c1CC2 [Compound 4, maritin D]
69.5 ± 1.7 | C=Cc1cc(O)c(C)c2c1-c1ccc(O)c(C)c1CC2 [Compound 8, 2,7-dihydroxy-1,8-dimethyl-5-vinyl-9,10-dihydrophenanthrene]
97 ± 0.3 | C=Cc1c(C)ccc2c1CCc1c-2ccc(O)c1C [Compound 2, maritin B]

Test system: T-47D ductal carcinoma cells
Test: MTT antiproliferative assay, T-47D
Assay type: cell-based, human
Settings: Homo sapiens, T47D, 72 h, mean of four parallel experiments, read-out: IC50 (µM) ± SD T-47D
Experimental: as §1, §2

IC50 [µM] | SMILES
9.1 ± 0.4 | C=Cc1cc(O)cc2c1-c1ccc(Oc3cc4c(c(C)c3O)CCc3cc(O)cc(C=C)c3-4)c(C)c1CC2 [Compound 4, maritin D]
57 ± 7.1 | C=Cc1cc(O)c(C)c2c1-c1ccc(O)c(C)c1CC2 [Compound 8, 2,7-dihydroxy-1,8-dimethyl-5-vinyl-9,10-dihydrophenanthrene]
> 100 | C=Cc1c(C)ccc2c1CCc1c-2ccc(O)c1C [Compound 2, maritin B]
